Source: the NIST ThermoML archive (doi:10.1016/j.fluid.2014.09.014)
Numbers after ± are expanded uncertainties.

Test: refractive index (other wavelength) (dimensionless); xn = mol fraction of the nth substance listed
Details: 313.15 K, 101 kPa, Liquid, Standard Abbe refractometry

CC(C)OC(C)C [diisopropyl ether] + CO
refractive index
Details	Wavelength=435.8 nm	Wavelength=486.1 nm	Wavelength=546.1 nm	Wavelength=587.6 nm
x2 = 0	–	1.36119 ± 0.00044	1.35842 ± 0.00044	1.357 ± 0.00044
x2 = 0.0423	–	1.36111 ± 0.00043	1.35837 ± 0.00043	1.35693 ± 0.00043
x2 = 0.0424	–	1.36115 ± 0.00043	1.35839 ± 0.00043	1.35696 ± 0.00043
x2 = 0.082	–	1.36108 ± 0.00042	1.35823 ± 0.00042	1.35691 ± 0.00042
x2 = 0.0822	–	1.36126 ± 0.00042	1.35853 ± 0.00042	1.3571 ± 0.00042
x2 = 0.1171	1.36445 ± 0.00041	1.36113 ± 0.00041	1.35838 ± 0.00041	1.35696 ± 0.00041
x2 = 0.1271	1.36445 ± 0.00041	1.36113 ± 0.00041	1.35841 ± 0.00041	1.35696 ± 0.00041
x2 = 0.1827	1.36423 ± 0.0004	1.36091 ± 0.0004	1.35818 ± 0.0004	1.35676 ± 0.0004
x2 = 0.2162	1.36405 ± 0.0004	1.36077 ± 0.0004	1.35802 ± 0.0004	1.35661 ± 0.0004
x2 = 0.251	1.36361 ± 0.00039	1.36031 ± 0.00039	1.35759 ± 0.00039	1.35617 ± 0.00039
x2 = 0.3298	1.36371 ± 0.00038	1.36044 ± 0.00038	1.3577 ± 0.00038	1.35627 ± 0.00038
x2 = 0.3577	1.36268 ± 0.00038	1.35958 ± 0.00038	1.35686 ± 0.00038	1.35545 ± 0.00038
x2 = 0.4497	1.36152 ± 0.00037	1.3583 ± 0.00037	1.35561 ± 0.00037	1.35419 ± 0.00037
x2 = 0.4525	1.36193 ± 0.00037	1.35868 ± 0.00037	1.35599 ± 0.00037	1.35459 ± 0.00037
x2 = 0.522	1.35976 ± 0.00035	1.35655 ± 0.00035	1.35386 ± 0.00035	1.35246 ± 0.00035
x2 = 0.5543	1.35887 ± 0.00035	1.35569 ± 0.00035	1.353 ± 0.00035	–
x2 = 0.609	1.35654 ± 0.00034	1.3534 ± 0.00034	1.35074 ± 0.00034	–
x2 = 0.6529	1.35496 ± 0.00034	1.35191 ± 0.00034	1.34921 ± 0.00034	–
x2 = 0.7504	1.35104 ± 0.00033	1.34795 ± 0.00033	1.34538 ± 0.00033	–
x2 = 0.804	1.34656 ± 0.00033	1.34353 ± 0.00033	1.341 ± 0.00033	–
x2 = 0.807	1.34668 ± 0.00033	1.34363 ± 0.00033	1.34112 ± 0.00033	–
x2 = 0.8727	1.34306 ± 0.00032	1.34009 ± 0.00032	1.33757 ± 0.00032	–
x2 = 0.9233	1.33508 ± 0.00033	1.33213 ± 0.00033	1.3297 ± 0.00033	–
x2 = 0.9253	1.33674 ± 0.00033	1.3338 ± 0.00033	1.33136 ± 0.00032	–
x2 = 0.9527	1.33377 ± 0.00032	1.33085 ± 0.00032	1.32843 ± 0.00032	–
x2 = 0.9773	1.3304 ± 0.00032	1.32749 ± 0.00032	1.32509 ± 0.00032	–
x2 = 0.989	1.32916 ± 0.00032	1.32628 ± 0.00032	1.32387 ± 0.00032	–
x2 = 0.9964	1.3282 ± 0.00032	1.32531 ± 0.00032	1.32292 ± 0.00032	–
